pIC50: −log10 of the molar value.

Sequence of PI3K delta (O00329 2-1044): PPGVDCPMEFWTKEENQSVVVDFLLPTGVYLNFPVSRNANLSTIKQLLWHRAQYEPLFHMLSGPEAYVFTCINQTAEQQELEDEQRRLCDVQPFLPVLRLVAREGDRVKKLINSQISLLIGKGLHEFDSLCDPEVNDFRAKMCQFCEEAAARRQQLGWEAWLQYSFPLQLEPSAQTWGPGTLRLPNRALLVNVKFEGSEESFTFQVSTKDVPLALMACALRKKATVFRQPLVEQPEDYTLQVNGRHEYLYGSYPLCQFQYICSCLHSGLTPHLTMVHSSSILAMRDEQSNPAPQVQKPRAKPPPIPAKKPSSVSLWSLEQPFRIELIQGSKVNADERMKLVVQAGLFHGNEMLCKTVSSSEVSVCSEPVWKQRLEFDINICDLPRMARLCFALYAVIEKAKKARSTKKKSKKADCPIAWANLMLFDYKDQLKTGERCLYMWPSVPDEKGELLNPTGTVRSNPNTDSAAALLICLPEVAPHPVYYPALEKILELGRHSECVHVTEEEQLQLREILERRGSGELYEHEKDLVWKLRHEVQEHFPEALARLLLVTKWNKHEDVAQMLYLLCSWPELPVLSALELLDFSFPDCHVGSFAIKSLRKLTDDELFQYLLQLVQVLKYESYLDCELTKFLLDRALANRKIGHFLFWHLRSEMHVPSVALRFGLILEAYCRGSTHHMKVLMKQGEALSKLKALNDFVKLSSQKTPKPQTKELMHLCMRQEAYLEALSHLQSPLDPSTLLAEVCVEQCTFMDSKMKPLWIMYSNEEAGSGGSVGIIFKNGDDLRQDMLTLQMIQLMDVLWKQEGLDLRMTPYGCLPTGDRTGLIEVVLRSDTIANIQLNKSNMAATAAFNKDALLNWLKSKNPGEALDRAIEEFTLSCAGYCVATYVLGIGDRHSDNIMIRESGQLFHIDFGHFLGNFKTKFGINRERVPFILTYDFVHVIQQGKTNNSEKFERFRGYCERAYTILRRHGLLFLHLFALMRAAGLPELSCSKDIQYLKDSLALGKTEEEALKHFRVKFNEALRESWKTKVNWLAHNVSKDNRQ
Sequence of PI3K delta (P27986 461-568 partner): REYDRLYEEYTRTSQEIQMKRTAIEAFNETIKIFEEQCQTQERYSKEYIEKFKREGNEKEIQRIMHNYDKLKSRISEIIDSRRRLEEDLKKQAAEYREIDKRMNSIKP

The target of this assay is PI3K delta (Homo sapiens (Human), UniProt O00329). Kind of assay: Biochemical assay for PI3Kdelta (Adapta TR-FRET format). The note with it: enzymatic assay. From the text:
For the enzymatic assays, the preparation of PI3K gene constructs, protein expression and purification for HTS are described in WO2012/004299. […] The TR-FRET Adapta™ Universal Kinase Assay Kit was purchased from Invitrogen Corporation (Carlsbad/CA, USA) (Cat. No. PV5099). The kit contains the following reagents: Adapta Eu-anti-ADP Antibody (Europium labeled anti-ADP antibody in HEPES buffered saline, Cat. No. PV5097), Alexa Fluor® 647-labeled ADP tracer (Alexa Fluor® 647-labeled ADP tracer in HEPES buffered saline, Cat. No. PV5098), proprietary TR-FRET dilution buffer pH 7.5 (Cat. No. PV3574). PIK3CD substrate Phosphatidylinositol was obtained from Invitrogen (vesicules consisting of 2 mM PI in 50 mM HEPES pH7.5; Cat. No. PV5371). PIK3CG substrate Phosphatidylinositol-4,5-bisphosphate (PIP(4,5)2 was obtained from Invitrogen (PIP2:PS large unilamellar vesicules consisting of 1 mM PI P2: 19 mM PS in 50 mM HEPES pH7.5, 3 mM MgCl2, 1 mM EGTA; Cat. No. PV5100). Time-Resolved Fluorescence Resonance Energy Transfer (TR-FRET) is a technology based on energy transfer between two adjacent dyes, from an excited electron in one dye (the donor) to an electron of an adjacent dye (the acceptor) through resonance, then released as a photon. This energy transfer is detected by an increase in the fluorescence emission of the acceptor, and a decrease in the fluorescence emission of the donor. TR-FRET assays for protein kinases use a long-lifetime lanthanide Terbium or Europium chelates as the donor species which overcome interference from compound autofluorescence or light scatter from precipitated compounds, by introducing a delay after excitation by a flashlamp excitation source. Results are often expressed as a ratio of the intensities of the acceptor and donor fluorophores. The ratiometric nature of such a value corrects for differences in assay volumes between wells, as well as corrects for quenching effects due to colored compounds. The Adapta™ assay can be divided into two phases: a kinase reaction phase and an ADP detection phase. In the kinase reaction phase, all kinase reaction components are added to the well and the reaction is allowed to incubate for a set period of time specific for each kinase. After the reaction, a detection solution of Eu-labeled anti-ADP antibody, Alexa Fluor® 647-labeled ADP tracer, and EDTA (to stop the kinase reaction) are added to the assay well. ADP formed by the kinase reaction will displace the Alexa Fluor® 647-labeled ADP tracer from the antibody, resulting in a decrease in TR-FRET signal. In the presence of an inhibitor, the amount of ADP formed by the kinase reaction is reduced, and the resulting intact antibody-tracer interaction maintains a high TR-FRET signal. In the Adapta™ assay, the donor (Europium-anti-ADP antibody) is excited at 340 nm and will transfer its energy to the acceptor (Alexa Fluor® 647-labeled ADP tracer). The emission from the Alexa Fluor® 647 can be monitored with a filter centered at 665 nm because it is located between the emission peaks of the donor, which is measured at 615/620 nm. 50 nL of compound dilutions were dispensed onto white 384-well small volume polystyrene plate as described in section 2.2. Then 5 μL of PI3Kgamma and PI3Kdelta and lipid substrate (PI or PIP2:PS) followed by 5 μL of ATP (final assay volume 10 μL) are incubated at RT. […] Reactions were stopped with 5 μL of a mixture of EDTA containing the Eu-labeled anti-ADP antibody and the Alexa Fluor® 647-labeled ADP tracer in TR-FRET dilution buffer (proprietary to IVG). Plates are read 15 to 60 mins later in a Synergy2 reader using an integration time of 0.4 seconds and a delay of 0.05 seconds. […] The control for the 0% inhibition was given by the solvent vehicle of the compounds (90% DMSO in H2O). Data are analyzed using Excel fit software or Graphpad Prism. EC50 values were derived by fitting a sigmoidal dose-response curve to a plot of assay readout over inhibitor concentration. […]
`Cc1nc(N)nc(N2C[C@@H](O)C[C@H]2c2nc3cccc(-c4cccnc4)c3c(=O)n2-c2ccccc2)c1C#N` [Example 24, 2-Amino-4-((2S,4S)-4-hydroxy-2-(4-oxo-3-phenyl-5-(pyridin-3-yl)-3,4-dihydroquinazolin-2-yl)pyrrolidin-1-yl)-6-methylpyrimidine-5-carbonitrile]: the pIC50 (in general, −log10 of the IC50, conventionally taken in molar units) is 8.30.

Turning to `COc1ncc(-c2c(F)ccc3nc([C@@H]4C[C@H](O)CN4c4nc(N)nc(C)c4C#N)n(-c4ccccc4)c(=O)c23)s1` [Example 9, 2-Amino-4-((2S,4S)-2-(6-fluoro-5-(2-methoxythiazol-5-yl)-4-oxo-3-phenyl-3,4-dihydroquinazolin-2-yl)-4-hydroxypyrrolidin-1-yl)-6-methylpyrimidine-5-carbonitrile], the pIC50 was 8.10. `COc1ncc(-c2cccc3nc([C@@H]4CCCN4c4ncnc(N)c4C#N)n(-c4ccccc4)c(=O)c23)cn1` [Example 3, (S)-4-Amino-6-(2-(5-(2-methoxypyrimidin-5-yl)-4-oxo-3-phenyl-3,4-dihydroquinazolin-2-yl)pyrrolidin-1-yl)pyrimidine-5-carbonitrile]: the pIC50 is 8.10. Then `CO[C@H]1C[C@@H](c2nc3cccc(-c4cnn(C)c4)c3c(=O)n2-c2ccccc2)N(c2nc(N)nc3[nH]cnc23)C1` [Example 11, 2-((2S,4S)-1-(2-Amino-9H-purin-6-yl)-4-methoxypyrrolidin-2-yl)-5-(1-methyl-1H-pyrazol-4-yl)-3-phenylquinazolin-4(3H)-one], with 7.35; and `Cc1nc(N)nc(N2C[C@@H](O)C[C@H]2c2nc3cccc(-c4cnn(C)c4)c3c(=O)n2-c2ccccc2)c1C#N` [Example 16, 2-Amino-4-((2S,4S)-4-hydroxy-2-(5-(1-methyl-1H-pyrazol-4-yl)-4-oxo-3-phenyl-3,4-dihydroquinazolin-2-yl)pyrrolidin-1-yl)-6-methylpyrimidine-5-carbonitrile], with 8.15; and `CCOc1ncc(-c2c(F)ccc3nc([C@@H]4C[C@H](O)CN4c4nc(N)nc(C)c4C#N)n(-c4ccccc4)c(=O)c23)cn1` [Example 29, 2-Amino-4-((2S,4S)-2-(5-(2-ethoxypyrimidin-5-yl)-6-fluoro-4-oxo-3-phenyl-3,4-dihydroquinazolin-2-yl)-4-hydroxypyrrolidin-1-yl)-6-methylpyrimidine-5-carbonitrile], with 8.40. As for `Cn1cnc(-c2cccc3nc([C@@H]4CCCN4c4ncnc(N)c4C#N)n(-c4ccccc4)c(=O)c23)c1` [Example 15, (S)-4-Amino-6-(2-(5-(1-methyl-1H-imidazol-4-yl)-4-oxo-3-phenyl-3,4-dihydroquinazolin-2-yl)pyrrolidin-1-yl)pyrimidine-5-carbonitrile], the pIC50 is < 5.00. Take `Cc1nc(N)nc(N2CCC[C@H]2c2nc3cccc(-c4cccnc4)c3c(=O)n2-c2ccccc2)c1C#N` [Example 20, (S)-2-Amino-4-methyl-6-(2-(4-oxo-3-phenyl-5-(pyridin-3-yl)-3,4-dihydroquinazolin-2-yl)pyrrolidin-1-yl)pyrimidine-5-carbonitrile]: the negative logarithm of the IC50 (pIC50) is 7.82. For the compound `N#Cc1c(N)ncnc1N1CCC[C@H]1c1nc2cccc(C#CCO)c2c(=O)n1-c1ccccc1` [Example 33, (S)-4-Amino-6-(2-(5-(3-hydroxyprop-1-yn-1-yl)-4-oxo-3-phenyl-3,4-dihydroquinazolin-2-yl)pyrrolidin-1-yl)pyrimidine-5-carbonitrile], the negative logarithm of the IC50 (pIC50) was 7.89. As for `COc1cncc(-c2cccc3nc([C@@H]4CCCN4c4nc(N)nc(C)c4C#N)n(-c4ccccc4)c(=O)c23)c1` [Example 18, (S)-2-Amino-4-(2-(5-(5-methoxypyridin-3-yl)-4-oxo-3-phenyl-3,4-dihydroquinazolin-2-yl)pyrrolidin-1-yl)-6-methylpyrimidine-5-carbonitrile], the negative-log IC50 (pIC50) was 7.85. As for `COc1cncc(-c2cccc3nc([C@@H]4C[C@H](O)CN4c4nc(N)nc(C)c4C#N)n(-c4ccccc4)c(=O)c23)c1` [Example 25, 2-Amino-4-((2S,4S)-4-hydroxy-2-(5-(5-methoxypyridin-3-yl)-4-oxo-3-phenyl-3,4-dihydroquinazolin-2-yl)pyrrolidin-1-yl)-6-methylpyrimidine-5-carbonitrile], the negative logarithm of the IC50 (pIC50) is 8.30. For the compound `COc1ncc(-c2cccc3nc([C@@H]4C[C@H](O)CN4c4nc(N)nc(C)c4C#N)n(-c4ccccc4)c(=O)c23)cn1` [Example 22, 2-Amino-4-((2S,4S)-4-hydroxy-2-(5-(2-methoxypyrimidin-5-yl)-4-oxo-3-phenyl-3,4-dihydroquinazolin-2-yl)pyrrolidin-1-yl)-6-methylpyrimidine-5-carbonitrile], the pIC50 was 8.30. Then `Cc1nc(N)nc(N2C[C@@H](O)C[C@H]2c2nc3cccc(-c4cncnc4)c3c(=O)n2-c2ccccc2)c1C#N` [Example 26, 2-Amino-4-((2S,4S)-4-hydroxy-2-(4-oxo-3-phenyl-5-(pyrimidin-5-yl)-3,4-dihydroquinazolin-2-yl)pyrrolidin-1-yl)-6-methylpyrimidine-5-carbonitrile], with 8.22; and `Cc1nc(N)nc(N2C[C@@H](O)C[C@H]2c2nc3cccc(-c4cnn(CCO)c4)c3c(=O)n2-c2ccccc2)c1C#N` [Example 28, 2-Amino-4-((2S,4S)-4-hydroxy-2-(5-(1-(2-hydroxyethyl)-1H-pyrazol-4-yl)-4-oxo-3-phenyl-3,4-dihydroquinazolin-2-yl)pyrrolidin-1-yl)-6-methylpyrimidine-5-carbonitrile], with 8.00; and `Cc1nc(N)nc(N2C[C@@H](O)C[C@H]2c2nc3ccc(F)c(-c4cnn(C)c4)c3c(=O)n2-c2ccccc2)c1C#N` [Example 1, 2-Amino-4-((2S,4S)-2-(6-fluoro-5-(1-methyl-1H-pyrazol-4-yl)-4-oxo-3-phenyl-3,4-dihydroquinazolin-2-yl)-4-hydroxypyrrolidin-1-yl)-6-methylpyrimidine-5-carbonitrile], with 8.10. `Cc1nc(N)nc(N2CCC[C@H]2c2nc3cccc(-c4cnn(C)c4)c3c(=O)n2-c2ccccc2)c1C#N` [Example 13, (S)-2-Amino-4-methyl-6-(2-(5-(1-methyl-1H-pyrazol-4-yl)-4-oxo-3-phenyl-3,4-dihydroquinazolin-2-yl)pyrrolidin-1-yl)pyrimidine-5-carbonitrile]: the negative-log IC50 (pIC50) was 8.15.

As to `Cc1ncc(-c2cccc3nc([C@@H]4CCCN4c4nc(N)nc(C)c4C#N)n(-c4ccccc4)c(=O)c23)cn1` [Example 19, (S)-2-Amino-4-methyl-6-(2-(5-(2-methylpyrimidin-5-yl)-4-oxo-3-phenyl-3,4-dihydroquinazolin-2-yl)pyrrolidin-1-yl)pyrimidine-5-carbonitrile], the pIC50 is 7.77.

In the case of `COc1ncc(-c2cccc3nc([C@@H]4CCCN4c4nc(N)nc(C)c4C#N)n(-c4ccccc4)c(=O)c23)cn1` [Example 4, (S)-2-Amino-4-(2-(5-(2-methoxypyrimidin-5-yl)-4-oxo-3-phenyl-3,4-dihydroquinazolin-2-yl)pyrrolidin-1-yl)-6-methylpyrimidine-5-carbonitrile], the pIC50 was 8.22.

For `Cc1nc(N)nc(N2CCC[C@H]2c2nc3ccc(F)c(-c4cnn(C)c4)c3c(=O)n2-c2ccccc2)c1C#N` [Example 6, (S)-2-Amino-4-(2-(6-fluoro-5-(1-methyl-1H-pyrazol-4-yl)-4-oxo-3-phenyl-3,4-dihydroquinazolin-2-yl)pyrrolidin-1-yl)-6-methylpyrimidine-5-carbonitrile], the pIC50 is 8.05.

For the origin of these results see patent US9840498B2, “Substituted quinazolin-4-one derivatives” (NOVARTIS AG, priority 2013, dated 2017).
